Where two headings read alike, the source gives them in different places.
Columns and labels:
Wee1 kinase domain = biological target: T1, Wee1 kinase domain (Homo sapiens, UniProt P30291); assay: Wee1 Kinase Biochemical Assay (ADP-Glo); conditions: 15 uM ATP
T1 construct: Wee1 kinase domain was purchased from Carna (catalog #05-177); purchased Carna 05-177
How it was run: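 1 nM enzyme; 15 uM ATP; 2 ng/mL poly(Lys,Tyr 4:1); 40 mM Tris-HCl, 20 mM MgCl2, 0.1 mg/mL BSA, 2 mM DTT; 4 h, 25 °C; ADP-Glo; % inhibition vs DMSO and saturating positive-control wells.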

[1] = tested on: phosphorylation of Cdc2 Y15 (Wee1 substrate) in A427 cells; assay: Phosphorylated Cdc2 MSD Electrochemiluminescence Assay; type: cell-based; conditions: Homo sapiens
How it was run: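 A427 cells (RPMI 1640, 10% FBS) treated 20 h after plating with 3-fold serial compound dilutions, in duplicate, 37 °C, 5% CO2; total incubation 6 h. Lysate Cdc2 pY15 read by MSD electrochemiluminescence sandwich immunoassay; % remaining signal normalised to DMSO (high) and reference Wee1 inhibitor (low) controls.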

[2] = class symbols, 1 nM Wee1 enzyme, 4 hours at 25° C.
[3] = A-427, class symbols, read-out: A427 pCDC2 MSD IC50

T1 sequence (P30291 299-569 limits assumed): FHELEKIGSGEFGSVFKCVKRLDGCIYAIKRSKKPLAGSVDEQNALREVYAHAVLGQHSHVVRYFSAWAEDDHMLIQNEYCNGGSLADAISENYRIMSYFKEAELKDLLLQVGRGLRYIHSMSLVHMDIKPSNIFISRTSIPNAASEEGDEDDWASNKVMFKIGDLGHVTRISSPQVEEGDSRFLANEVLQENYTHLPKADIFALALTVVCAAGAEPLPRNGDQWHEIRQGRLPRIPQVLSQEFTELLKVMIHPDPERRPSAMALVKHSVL

Row | IC50 (Wee1 kinase domain; Wee1 kinase domain, ADP-Glo) | IC50 ([1]; A-427, pCDC2 MSD) | Structure (SMILES) | IC50 (Wee1 kinase domain; [2]) | IC50 [1, 3]
1 | – | – | CN1CC[C@@H]2CN(c3ccc(Nc4ncc5c(n4)N(c4cccc(N6CCCC6=O)n4)[C@@H]4CC(C)(C)OC[C@]54C)cc3)C[C@@H]21 [Example 686, 1-(6-((4bR,8aR)-4b,7,7-trimethyl-2-((4-((3aR,6aR)-1-methylhexahydropyrrolo[3,4-b]pyrrol-5(1H)-yl)phenyl)amino)-4b,7,8,8a-tetrahydropyrano[3′,4′:4,5]pyrrolo[2,3-d]pyrimidin-9(5H)-yl)pyridin-2-yl)pyrrolidin-2-one] | < 10 nM | 100 to 1000 nM
2 | – | – | CN1[C@@H]2C[C@H]1CN(c1ccc(Nc3ncc4c(n3)N(c3cccc(N=S(C)(C)=O)n3)[C@@H]3CC(C)(C)OC[C@]43C)cc1)C2 (single isomer, unassigned) [Example 506] | < 10 nM | 100 to 1000 nM
3 | < 10 nM | 100 to 1000 nM | C[C@H]1COC(=O)N1c1cccc(N2c3nc(Nc4ccc(O[C@@H]5CCN(C)C5)cc4)ncc3[C@@]3(C)COC(C)(C)C[C@@H]23)n1 (single isomer, unassigned) [Example 331] | – | –
4 | < 10 nM | 100 to 1000 nM | C[C@H]1COC(=O)N1c1cccc(N2c3nc(Nc4ccc(O[C@H]5CCN(C)C5)nc4)ncc3[C@@]3(C)COC(C)(C)C[C@@H]23)n1 (single isomer, unassigned) [Example 281] | – | –

— patent US20260166039A1 (SCHRÖDINGER, INC., priority 2022, published 2026)
